Key:
Assay in all cases: cells
[1] = system: TE-11; assay type: functional, cell-based, Homo sapiens; details: Homo sapiens, TE-11;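 also: growth inhibition of human TE-11 cells, read out by a cell viability assay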
Description: SANGER: Inhibition of human TE-11 cell growth in a cell viability assay.

[2] = system: KS-1; assay type: functional, cell-based, Homo sapiens; details: Homo sapiens, KS-1;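 also: growth inhibition of KS-1 cells, read out with a cell viability assay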
Description: SANGER: Inhibition of human KS-1 cell growth in a cell viability assay.

[3] = system: ES4; assay type: functional, cell-based, Homo sapiens; details: Homo sapiens, ES4;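 also: growth inhibition of human ES4 cells, read out by a cell viability assay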
Description: SANGER: Inhibition of human ES4 cell growth in a cell viability assay.

[4] = system: COLO-684; assay type: functional, cell-based, Homo sapiens; details: Homo sapiens, COLO-684
Description: SANGER: Inhibition of human COLO-684 cell growth in a cell viability assay.

[5] = system: SW684; assay type: functional, cell-based, Homo sapiens; details: Homo sapiens, SW684;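 also: growth inhibition of human SW684 cells, measured by a cell viability assay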
Description: SANGER: Inhibition of human SW684 cell growth in a cell viability assay.

[6] = system: NCI-H69; assay type: functional, cell-based, Homo sapiens; details: Homo sapiens, NCI-H69;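 also: growth inhibition of the cell line, read out with a cell viability assay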
Description: SANGER: Inhibition of human NCI-H69 cell growth in a cell viability assay.

[7] = system: LS-1034; assay type: functional, cell-based, Homo sapiens; details: Homo sapiens, LS-1034
Description: SANGER: Inhibition of human LS-1034 cell growth in a cell viability assay.

[8] = system: DSH1; assay type: functional, cell-based, Homo sapiens; details: Homo sapiens, DSH1;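 also: growth inhibition of human DSH1 cells, measured with a cell viability readout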
Description: SANGER: Inhibition of human DSH1 cell growth in a cell viability assay.

[9] = system: HD-MY-Z; assay type: functional, cell-based, Homo sapiens; details: Homo sapiens, HD-MY-Z;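 also: growth inhibition of HD-MY-Z cells, read out with a cell viability assay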
Description: SANGER: Inhibition of human HD-MY-Z cell growth in a cell viability assay.

[10] = system: MOLT-16; assay type: functional, cell-based, Homo sapiens; details: Homo sapiens, MOLT-16;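 also: growth inhibition of human MOLT-16 cells, read out with a cell viability assay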
Description: SANGER: Inhibition of human MOLT-16 cell growth in a cell viability assay.

[11] = system: ES3; assay type: functional, cell-based, Homo sapiens; details: Homo sapiens, ES3;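 also: growth inhibition of ES3 cells, read out with a cell viability assay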
Description: SANGER: Inhibition of human ES3 cell growth in a cell viability assay.

[12] = system: SJSA-1; assay type: functional, cell-based, Homo sapiens; details: Homo sapiens, SJSA-1;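 also: growth inhibition of human SJSA-1 cells, read out through a cell viability measurement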
Description: SANGER: Inhibition of human SJSA-1 cell growth in a cell viability assay.

[13] = system: EOL1; assay type: functional, cell-based, Homo sapiens; details: Homo sapiens, EOL1;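 also: growth inhibition of EoL-1 cells, read out by a cell viability assay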
Description: SANGER: Inhibition of human EoL-1-cell cell growth in a cell viability assay.

[14] = system: SNU1; assay type: functional, cell-based, Homo sapiens; details: Homo sapiens, SNU1;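 also: growth inhibition of human NCI-SNU-1 cells, measured with a cell viability assay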
Description: SANGER: Inhibition of human NCI-SNU-1 cell growth in a cell viability assay.

[15] = system: NTERA-2-cl-D1; assay type: functional, cell-based, Homo sapiens; details: Homo sapiens, NTERA-2-cl-D1;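 also: inhibition of cell growth, measured with a cell viability assay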
Description: SANGER: Inhibition of human NTERA-S-cl-D1 cell growth in a cell viability assay.

[16] = system: KY821; assay type: functional, cell-based, Homo sapiens; details: Homo sapiens, KY821;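 also: growth inhibition of human KY821 cells, read out by a cell viability assay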
Description: SANGER: Inhibition of human KY821 cell growth in a cell viability assay.

[17] = system: ES6; assay type: functional, cell-based, Homo sapiens; details: Homo sapiens, ES6;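 also: growth inhibition of human ES6 cells, read out with a cell viability assay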
Description: SANGER: Inhibition of human ES6 cell growth in a cell viability assay.

[18] = system: LS-411N; assay type: functional, cell-based, Homo sapiens; details: Homo sapiens, LS-411N
[19] = system: HCC2218; assay type: functional, cell-based, Homo sapiens; details: Homo sapiens, HCC2218;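 also: cell viability assay read-out, with IC50 given as the concentration that inhibits growth of the cell line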
Description: SANGER: Inhibition of human HCC2218 cell growth in a cell viability assay.

[20] = system: D283 Med; assay type: functional, cell-based, Homo sapiens; details: Homo sapiens, D283 Med
Description: SANGER: Inhibition of human D-283MED cell growth in a cell viability assay.

[21] = system: NCI-H226; assay type: functional, cell-based, Homo sapiens; details: Homo sapiens, NCI-H226;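 also: cell viability read-out used to gauge growth inhibition of the cells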
Description: SANGER: Inhibition of human NCI-H226 cell growth in a cell viability assay.

[22] = system: ATN-1; assay type: functional, cell-based, Homo sapiens; details: Homo sapiens, ATN-1;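 also: growth inhibition of human ATN-1 cells, read out with a cell viability assay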
Description: SANGER: Inhibition of human ATN-1 cell growth in a cell viability assay.

[23] = system: HAL-01; assay type: functional, cell-based, Homo sapiens; details: Homo sapiens, HAL-01;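 also: growth inhibition of human HAL-01 cells, read out with a cell viability assay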
Description: SANGER: Inhibition of human HAL-01 cell growth in a cell viability assay.

[24] = system: CAS-1; assay type: functional, cell-based, Homo sapiens; details: Homo sapiens, CAS-1;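 also: growth inhibition of CAS-1 cells, measured with a cell viability assay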
Description: SANGER: Inhibition of human CAS-1 cell growth in a cell viability assay.

[25] = system: EKVX; assay type: functional, cell-based, Homo sapiens; details: Homo sapiens, EKVX;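 also: growth inhibition of human EKVX cells, read out with a cell viability assay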
Description: SANGER: Inhibition of human EKVX cell growth in a cell viability assay.

[26] = system: CTV-1; assay type: functional, cell-based, Homo sapiens; details: Homo sapiens, CTV-1;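 also: growth inhibition of the cell line, read out with a cell viability assay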
Description: SANGER: Inhibition of human CTV-1 cell growth in a cell viability assay.

[27] = system: HEL; assay type: functional, cell-based, Homo sapiens; details: Homo sapiens, HEL;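 also: growth inhibition of HEL cells, read out with a cell viability assay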
Description: SANGER: Inhibition of human HEL cell growth in a cell viability assay.

[28] = system: MV4-11; assay type: functional, cell-based, Homo sapiens, MV-4-11; details: Homo sapiens, MV4-11;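 also: cell viability readout measuring growth inhibition of human MV-4-11 cells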
Description: SANGER: Inhibition of human MV-4-11 cell growth in a cell viability assay.

[29] = system: J-RT3-T3-5; assay type: functional, cell-based, Homo sapiens; details: Homo sapiens, J-RT3-T3-5;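 also: cell viability assay measuring growth inhibition of human J-RT3-T3-5 cells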
Description: SANGER: Inhibition of human J-RT3-T3-5 cell growth in a cell viability assay.

[30] = system: LB771-HNC; assay type: functional, cell-based, Homo sapiens; details: Homo sapiens, LB771-HNC;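 also: growth inhibition of LB771-HNC human cells, read out with a cell viability assay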
Description: SANGER: Inhibition of human LB771-HNC cell growth in a cell viability assay.

[31] = system: KM12; assay type: functional, cell-based, Homo sapiens; details: Homo sapiens, KM12;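 also: KM12 cell growth inhibition, read out with a cell viability assay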
Description: SANGER: Inhibition of human KM12 cell growth in a cell viability assay.

[32] = system: NCI-H720; assay type: functional, cell-based, Homo sapiens; details: Homo sapiens, NCI-H720;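 also: growth inhibition of human NCI-H720 cells determined by a cell viability assay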
Description: SANGER: Inhibition of human NCI-H720 cell growth in a cell viability assay.

[33] = system: A3-KAW; assay type: functional, cell-based, Homo sapiens; details: Homo sapiens, A3-KAW;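 also: growth inhibition of human A3-KAW cells, read out with a cell viability assay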
Description: SANGER: Inhibition of human A3-KAW cell growth in a cell viability assay.

[34] = system: COLO-800; assay type: functional, cell-based, Homo sapiens; details: Homo sapiens, COLO-800;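 also: growth inhibition of COLO-800 cells, read out with a cell viability assay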
Description: SANGER: Inhibition of human COLO-800 cell growth in a cell viability assay.

[35] = system: KNS-81-FD; assay type: functional, cell-based, Homo sapiens; details: Homo sapiens, KNS-81-FD;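 also: growth inhibition of KNS-81-FD cells, read out with a cell viability assay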
Description: SANGER: Inhibition of human KNS-81-FD cell growth in a cell viability assay.

[36] = system: KLE; assay type: functional, cell-based, Homo sapiens; details: Homo sapiens, KLE;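 also: growth inhibition of human KLE cells, read out with a cell viability assay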
Description: SANGER: Inhibition of human KLE cell growth in a cell viability assay.

[37] = system: TE-10; assay type: functional, cell-based, Homo sapiens; details: Homo sapiens, TE-10;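 also: growth inhibition of TE-10 cells, measured by a cell viability assay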
Description: SANGER: Inhibition of human TE-10 cell growth in a cell viability assay.

[38] = system: KNS-42; assay type: functional, cell-based, Homo sapiens; details: Homo sapiens, KNS-42;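 also: growth inhibition of KNS-42 cells, read out with a cell viability assay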
Description: SANGER: Inhibition of human KNS-42 cell growth in a cell viability assay.

[39] = system: MFM-223; assay type: functional, cell-based, Homo sapiens; details: Homo sapiens, MFM-223
Description: SANGER: Inhibition of human MFM-223 cell growth in a cell viability assay.

[40] = system: TK-10; assay type: functional, cell-based, Homo sapiens; details: Homo sapiens, TK-10;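 also: growth inhibition of TK-10 cells, read out in a cell viability assay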
Description: SANGER: Inhibition of human TK10 cell growth in a cell viability assay.

[41] = system: NOS-1; assay type: functional, cell-based, Homo sapiens; details: Homo sapiens, NOS-1;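 also: growth inhibition of the human NOS-1 cell line, read out with a cell viability assay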
Description: SANGER: Inhibition of human NOS-1 cell growth in a cell viability assay.

[42] = system: SK-NEP-1; assay type: functional, cell-based, Homo sapiens; details: Homo sapiens, SK-NEP-1;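 also: growth inhibition of human SK-NEP-1 cells, read out by a cell viability assay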
Description: SANGER: Inhibition of human SK-NEP-1 cell growth in a cell viability assay.

[43] = system: NCI-H1838; assay type: functional, cell-based, Homo sapiens; details: Homo sapiens, NCI-H1838;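 also: growth inhibition of NCI-H1838 cells, determined with a cell viability readout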
Description: SANGER: Inhibition of human NCI-H1838 cell growth in a cell viability assay.

[44] = system: ES5; assay type: functional, cell-based, Homo sapiens; details: Homo sapiens, ES5;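 also: growth inhibition of human ES5 cells, read out by a cell viability assay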
Description: SANGER: Inhibition of human ES5 cell growth in a cell viability assay.

[45] = system: LU-139; assay type: functional, cell-based, Homo sapiens; details: Homo sapiens, LU-139
Description: SANGER: Inhibition of human LU-139 cell growth in a cell viability assay.

SMILES: COc1cc2c(Nc3ccc(NC(=O)c4ccccc4)cc3)ncnc2cc1OCCCN1CCOCC1
- IC50 [1]: 537 nM
- IC50 [2]: > 4 µM
- IC50 [3]: > 4 µM
- IC50 [4]: > 4 µM
- IC50 [5]: > 4 µM
- IC50 [6]: > 4 µM
- IC50 [7]: > 4 µM
- IC50 [8]: > 4 µM
- IC50 [9]: > 4 µM
- IC50 [10]: 610 nM
- IC50 [11]: 473 nM
- IC50 [12]: > 4 µM
- IC50 [13]: 187 nM
- IC50 [14]: 3110 nM
- IC50 [15]: > 4 µM
- IC50 [16]: > 4000 nM
- IC50 [17]: > 4 µM
- IC50 [18]: > 4 µM
- IC50 [19]: > 4000 nM
- IC50 [20]: > 4 µM
- IC50 [21]: > 4 µM
- IC50 [22]: > 4 µM
- IC50 [23]: > 4000 nM
- IC50 [24]: > 4 µM
- IC50 [25]: > 4 µM
- IC50 [26]: 2070 nM
- IC50 [27]: > 4 µM
- IC50 [28]: 796 nM
- IC50 [29]: > 4 µM
- IC50 [30]: > 4 µM
- IC50 [31]: > 4000 nM
- IC50 [32]: 1210 nM
- IC50 [33]: > 4 µM
- IC50 [34]: 1700 nM
- IC50 [35]: > 4 µM
- IC50 [36]: > 4 µM
- IC50 [37]: > 4 µM
- IC50 [38]: > 4 µM
- IC50 [39]: > 4 µM
- IC50 [40]: > 4 µM
- IC50 [41]: > 4 µM
- IC50 [42]: 1360 nM
- IC50 [43]: > 4 µM
- IC50 [44]: 1000 nM
- IC50 [45]: 3.83 µM

SMILES: CC1(C)CNc2cc(NC(=O)c3cccnc3NCc3ccncc3)ccc21 [MOTESANIB]
- IC50 [1]: > 2000 nM
- IC50 [2]: > 2 µM
- IC50 [3]: > 2 µM
- IC50 [4]: > 2 µM
- IC50 [5]: > 2 µM
- IC50 [6]: > 2 µM
- IC50 [7]: > 2 µM
- IC50 [8]: > 2 µM
- IC50 [9]: > 2 µM
- IC50 [10]: > 2000 nM
- IC50 [11]: > 2000 nM
- IC50 [12]: > 2 µM
- IC50 [13]: < 7.81 nM
- IC50 [14]: > 2000 nM
- IC50 [15]: > 2 µM
- IC50 [16]: > 2000 nM
- IC50 [17]: > 2 µM
- IC50 [18]: > 2 µM
- IC50 [19]: > 2000 nM
- IC50 [20]: > 2 µM
- IC50 [21]: > 2 µM
- IC50 [22]: > 2 µM
- IC50 [23]: > 2000 nM
- IC50 [24]: > 2 µM
- IC50 [25]: > 2 µM
- IC50 [26]: > 2000 nM
- IC50 [27]: > 2 µM
- IC50 [28]: > 2000 nM
- IC50 [29]: > 2 µM
- IC50 [30]: > 2 µM
- IC50 [31]: > 2000 nM
- IC50 [32]: > 2000 nM
- IC50 [33]: > 2 µM
- IC50 [34]: > 2000 nM
- IC50 [35]: > 2 µM
- IC50 [36]: > 2 µM
- IC50 [37]: > 2 µM
- IC50 [38]: > 2 µM
- IC50 [39]: > 2 µM
- IC50 [40]: > 2 µM
- IC50 [41]: > 2 µM
- IC50 [42]: > 2000 nM
- IC50 [43]: > 2 µM
- IC50 [44]: > 2000 nM
- IC50 [45]: > 2 µM

SMILES: Cn1cnc2c(F)c(Nc3ccc(Br)cc3Cl)c(C(=O)NOCCO)cc21 [SELUMETINIB]
- IC50 [1]: > 4000 nM
- IC50 [2]: > 4 µM
- IC50 [3]: > 4 µM
- IC50 [4]: > 4 µM
- IC50 [5]: > 4 µM
- IC50 [6]: > 4 µM
- IC50 [7]: > 4 µM
- IC50 [8]: > 4 µM
- IC50 [9]: > 4 µM
- IC50 [10]: > 4000 nM
- IC50 [11]: > 4000 nM
- IC50 [12]: 3.78 µM
- IC50 [13]: 145 nM
- IC50 [14]: 1770 nM
- IC50 [15]: > 4 µM
- IC50 [16]: 107 nM
- IC50 [17]: > 4 µM
- IC50 [18]: > 4 µM
- IC50 [19]: 2480 nM
- IC50 [20]: > 4 µM
- IC50 [21]: > 4 µM
- IC50 [22]: > 4 µM
- IC50 [23]: 1700 nM
- IC50 [24]: > 4 µM
- IC50 [25]: > 4 µM
- IC50 [26]: > 4000 nM
- IC50 [27]: > 4 µM
- IC50 [28]: 575 nM
- IC50 [29]: > 4 µM
- IC50 [30]: > 4 µM
- IC50 [31]: 2540 nM
- IC50 [32]: > 4000 nM
- IC50 [33]: 3.91 µM
- IC50 [34]: > 4000 nM
- IC50 [35]: > 4 µM
- IC50 [36]: > 4 µM
- IC50 [37]: > 4 µM
- IC50 [38]: > 4 µM
- IC50 [39]: > 4 µM
- IC50 [40]: > 4 µM
- IC50 [41]: > 4 µM
- IC50 [42]: > 4000 nM
- IC50 [44]: > 4000 nM
- IC50 [45]: > 4 µM

From ChEMBL document CHEMBL1201861, “Genomics of Drug Sensitity in Cancer screening data, Wellcome Trust Sanger Institute”
